From ChEMBL document CHEMBL1145073, “DNA binding ligands targeting drug-resistant bacteria: structure, activity, and pharmacology” (J Med Chem, 2003)
≈ marks a conversion by molar mass, not a printed value.

Assays:
[1] = test system: Enterococcus faecalis; experiment: In vitro antimicrobial activity against vancomycin-susceptible Enterococcus faecalis 29212; assay type: functional
[2] = test system: Staphylococcus aureus; experiment: In vitro antimicrobial activity against MSSA 13709; assay type: functional
[3] = In vitro antimicrobial activity against penicillin-intermediate Streptococcus pneumoniae 49619; assay type: functional
[4] = test system: Mus musculus; experiment: Acute tolerability of compound in 4 ICR female mice after intravenous administration was determined; No adverse effects; assay type: functional, organism-based
[5] = biological target: Nucleic Acid; experiment: Apparent binding affinity against DNA (5'-ACAATTAA-3') was determined using DNase I footprinting titration method; assay type: nucleic-acid assay; conditions: read-out: Kd app
[6] = In vitro antimicrobial activity against penicillin resistant Streptococcus pneumoniae 51422; assay type: functional
[7] = test system: Candida albicans; experiment: In vitro antimicrobial activity against Candida albicans 38247; assay type: functional
[8] = test system: Enterococcus faecalis; experiment: In vitro antimicrobial activity against vancomycin-resistant Enterococcus faecalis 51559; assay type: functional
[9] = test system: Bacillus cereus; experiment: In vitro antimicrobial activity against Bacillus cereus 11778; assay type: functional
[10] = test system: Staphylococcus aureus; experiment: In vitro antimicrobial activity against methicillin resistant Staphylococcus aureus 27660; assay type: functional
[11] = test system: Mus musculus; experiment: Acute tolerability of compound […] female mice after intravenous administration was determined; Lethality 5/5; assay type: functional, organism-based
[12] = test system: Mus musculus; experiment: Acute tolerability of compound […] female mice after intravenous administration was determined; Lethality 3/5; assay type: functional, organism-based
[13] = test system: Enterococcus faecalis; experiment: In vitro antimicrobial activity against vancomycin-resistant Enterococcus faecalis 51559
[14] = test system: Mus musculus; experiment: Acute tolerability of compound […] female mice after intravenous administration was determined; 5/5 lethargy; assay type: functional, organism-based
[15] = test system: Mus musculus; experiment: Acute tolerability of compound in 5 ICR female mice after intravenous administration was determined; Lethality 1/5
[16] = test system: Mus musculus; experiment: Acute tolerability of compound in 4 ICR female mice after intravenous administration was determined; Lethality 1/4; assay type: functional, organism-based
[17] = test system: Mus musculus; experiment: Acute tolerability of compound in 4 ICR female mice after intravenous administration was determined; no adverse effects; assay type: functional, organism-based
[18] = Candida albicans, read-out: MIC

Row | Structure (SMILES) | MIC [1] [µg/mL] | MIC [3] [µg/mL] | Kd [5] [nM] | MIC [6] [µg/mL] | MIC [7, 18] [µg/mL] | MIC [9] [µg/mL] | MIC [10] [µg/mL] | further results
1 | Cn1cc(NC(=O)c2cc(NC(=O)c3cc(-c4nccs4)cn3C)cn2C)cc1C(=O)NCCN1CCOCC1 | > 32 | > 32 | – | – | – | – | – | MIC [2]: > 32 µg/mL
2 | Cn1cc(NC(=O)c2cc(NC(=O)c3cc(NC(=O)c4cc5ccccc5cn4)cn3C)cn2C)cc1C(=O)NCCN1CCSCC1 | 0.25 (≈ 0.374 µM) | 0.031 (≈ 0.0464 µM) | 1 | 0.062 (≈ 0.0928 µM) | > 32 | 0.25 (≈ 0.374 µM) | 0.125 (≈ 0.187 µM) | Acute tolerability [4]: No adverse effects; MIC [8]: 0.125 µg/mL (≈ 0.187 µM)
3 | Cn1cc(NC(=O)c2cc(NC(=O)c3cc(NC(=O)c4sccc4Cl)cn3C)cn2C)cc1C(=O)NCCN1CCCC1 | 16 (≈ 25.6 µM) | 2 (≈ 3.2 µM) | 2 | – | – | – | 8 (≈ 12.8 µM) | –
4 | Cn1cc(NC(=O)c2cc(NC(=O)c3cc(NC(=O)c4sc5cc(F)ccc5c4Cl)cn3C)cn2C)cc1C(=O)NCCN1CCOCC1 | 0.25 (≈ 0.353 µM) | 0.125 (≈ 0.176 µM) | – | – | > 32 | 0.25 (≈ 0.353 µM) | – | Acute tolerability [4]: No adverse effects
5 | Cn1cc(NC(=O)c2cc(NC(=O)c3cc(NC(=O)c4sccc4Cl)cn3C)cn2C)cc1C(=O)NCCCN1CCOCC1 | 4 (≈ 6.11 µM) | 2 (≈ 3.05 µM) | 71 | 8 (≈ 12.2 µM) | > 32 | 8 (≈ 12.2 µM) | 8 (≈ 12.2 µM) | MIC [8]: 8 µg/mL (≈ 12.2 µM)
6 | Cc1cnc(-c2cc(C(=O)Nc3cc(C(=O)Nc4cc(C(=O)NCCN5CCOCC5)n(C)c4)n(C)c3)n(C)c2)cn1 | 0.5 (≈ 0.872 µM) | 0.25 (≈ 0.436 µM) | – | 0.25 (≈ 0.436 µM) | > 32 | 1 (≈ 1.74 µM) | 2 (≈ 3.49 µM) | Acute tolerability [11]: Lethality 5/5; MIC [8]: 4 µg/mL (≈ 6.97 µM)
7 | Cn1cc(NC(=O)c2cc(NC(=O)c3cc(NC(=O)c4sccc4Cl)cn3C)cn2C)cc1C(=O)NCCCN1CCCCC1 | 4 (≈ 6.12 µM) | 4 (≈ 6.12 µM) | 50 | 16 (≈ 24.5 µM) | > 32 | 8 (≈ 12.2 µM) | 8 (≈ 12.2 µM) | Acute tolerability [12]: Lethality 3/5; MIC [13]: 16 µg/mL (≈ 24.5 µM)
8 | Cn1cc(NC(=O)c2cc(NC(=O)c3cc(NC(=O)c4sccc4Cl)cn3C)cn2C)cc1C(=O)NCCN1CCCCC1 | 0.5 (≈ 0.782 µM) | 0.25 (≈ 0.391 µM) | 5 | 2 (≈ 3.13 µM) | 32 (≈ 50.1 µM) | 0.5 (≈ 0.782 µM) | 0.5 (≈ 0.782 µM) | MIC [13]: 2 µg/mL (≈ 3.13 µM); Acute tolerability [14]: 5/5 lethargy
9 | Cn1cc(NC(=O)c2cc(NC(=O)c3cc(NC(=O)c4sccc4Cl)cn3C)cn2C)cc1C(=O)NCCc1ccccn1 | 2 (≈ 3.16 µM) | 2 (≈ 3.16 µM) | 100 | – | – | – | 2 (≈ 3.16 µM) | –
10 | Cn1cc(NC(=O)c2cc(NC(=O)c3cc(NC(=O)c4sccc4Cl)cn3C)cn2C)cc1C(=O)NCCN1CCC(F)(F)CC1 | 2 (≈ 2.96 µM) | 0.5 (≈ 0.741 µM) | 50 | – | – | – | 2 (≈ 2.96 µM) | –
11 | Cn1cc(NC(=O)c2cc(NC(=O)c3cc(NC(=O)c4sccc4Cl)cn3C)cn2C)cc1C(=O)NCCN1CCC(F)CC1 | 1 (≈ 1.52 µM) | 0.031 (≈ 0.0472 µM) | 5 | 0.125 (≈ 0.19 µM) | > 32 | 1 (≈ 1.52 µM) | 1 (≈ 1.52 µM) | Acute tolerability [15]: Lethality 1/5; MIC [8]: 0.5 µg/mL (≈ 0.761 µM)
12 | Cn1cc(NC(=O)c2cc(NC(=O)c3cc(NC(=O)c4cn5ccsc5n4)cn3C)cn2C)cc1C(=O)NCCN1CCOCC1 | 0.5 (≈ 0.773 µM) | 0.031 (≈ 0.0479 µM) | – | – | > 32 | 2 (≈ 3.09 µM) | – | Acute tolerability [16]: Lethality 1/4
13 | Cn1cc(NC(=O)c2cc(NC(=O)c3cc(-c4ccc(F)cc4Cl)cn3C)cn2C)cc1C(=O)NCCN1CCOCC1 | 8 (≈ 13.1 µM) | 4 (≈ 6.56 µM) | – | – | – | – | – | MIC [2]: 16 µg/mL (≈ 26.2 µM)
14 | Cn1cc(NC(=O)c2cc(NC(=O)c3cc(NC(=O)c4cc5ccccc5cn4)cn3C)cn2C)cc1C(=O)NCCN1CCC(F)CC1 | 0.125 (≈ 0.188 µM) | 0.031 (≈ 0.0464 µM) | – | – | – | – | 0.25 (≈ 0.374 µM) | –
15 | Cn1cc(NC(=O)c2cc(NC(=O)c3cc(-c4ccc5[nH]cnc5c4)cn3C)cn2C)cc1C(=O)NCCN1CCOCC1 | > 32 | > 8 | – | – | – | – | > 32 | –
16 | Cn1cc(NC(=O)c2cc(NC(=O)c3cc(NC(=O)c4sccc4Cl)cn3C)cn2C)cc1C(=O)NCc1ccccn1 | 4 (≈ 6.46 µM) | 1 (≈ 1.62 µM) | – | – | – | – | > 32 | –
17 | Cn1cc(NC(=O)c2cc(NC(=O)c3cc(-c4cnc(O)c(Cl)c4)cn3C)cn2C)cc1C(=O)NCCN1CCOCC1 | > 32 | 0.5 (≈ 0.821 µM) | – | – | – | – | 8 (≈ 13.1 µM) | –
18 | Cn1cc(NC(=O)c2cc(NC(=O)c3cc(-c4ccccc4Cl)cn3C)cn2C)cc1C(=O)NCCN1CCOCC1 | 16 (≈ 27 µM) | 32 (≈ 54 µM) | – | – | – | – | 32 (≈ 54 µM) | –
19 | Cn1cc(NC(=O)c2cc(NC(=O)c3cc(-c4ccco4)cn3C)cn2C)cc1C(=O)NCCN1CCOCC1 | 32 (≈ 58.4 µM) | 1 (≈ 1.83 µM) | – | – | – | – | 32 (≈ 58.4 µM) | –
20 | Cn1cc(NC(=O)c2cc(NC(=O)c3cc(-c4csnn4)cn3C)cn2C)cc1C(=O)NCCN1CCOCC1 | 4 (≈ 7.07 µM) | 1 (≈ 1.77 µM) | – | – | – | – | 32 (≈ 56.6 µM) | –
21 | COc1ccsc1-c1cc(C(=O)Nc2cc(C(=O)Nc3cc(C(=O)NCCN4CCOCC4)n(C)c3)n(C)c2)n(C)c1 | > 32 | > 32 | – | – | – | – | 32 (≈ 53.9 µM) | –
22 | CCCCc1ccc(-c2cc(C(=O)Nc3cc(C(=O)Nc4cc(C(=O)NCCN5CCOCC5)n(C)c4)n(C)c3)n(C)c2)nc1 | 32 (≈ 52.1 µM) | 2 (≈ 3.25 µM) | – | – | – | – | 8 (≈ 13 µM) | –
23 | Cn1cc(NC(=O)c2cc(NC(=O)c3cc(NC(=O)c4sccc4Cl)cn3C)cn2C)cc1C(=O)NCCN1CCSCC1 | 0.5 (≈ 0.761 µM) | 0.125 (≈ 0.19 µM) | < 1 | 0.062 (≈ 0.0943 µM) | > 32 | 0.5 (≈ 0.761 µM) | 1 (≈ 1.52 µM) | Acute tolerability [4]: No adverse effects; MIC [8]: 2 µg/mL (≈ 3.04 µM)
24 | Cn1cc(NC(=O)c2cc(NC(=O)c3cc(-c4sccc4Cl)cn3C)cn2C)cc1C(=O)NCCN1CCOCC1 | 1 (≈ 1.67 µM) | 0.125 (≈ 0.209 µM) | 20 | 0.125 (≈ 0.209 µM) | – | 1 (≈ 1.67 µM) | 4 (≈ 6.69 µM) | MIC [7]: > 32 µg/mL; MIC [8]: 1 µg/mL (≈ 1.67 µM); Acute tolerability [17]: no adverse effects
25 | CN(C)CCCNC(=O)c1cc(NC(=O)c2cc(NC(=O)c3cc(NC(=O)c4sccc4Cl)cn3C)cn2C)cn1C | 16 (≈ 26.1 µM) | 4 (≈ 6.52 µM) | 5 | – | – | – | 8 (≈ 13 µM) | –
26 | Cn1cc(NC(=O)c2cc(NC(=O)c3cc(-c4sc(Cl)c(Cl)c4Cl)cn3C)cn2C)cc1C(=O)NCCN1CCOCC1 | > 32 | 8 (≈ 12 µM) | – | – | – | – | 16 (≈ 24 µM) | –
27 | Cn1cc(NC(=O)c2cc(NC(=O)c3cc(-c4ccc(F)cc4)cn3C)cn2C)cc1C(=O)NCCN1CCOCC1 | 8 (≈ 13.9 µM) | 2 (≈ 3.47 µM) | – | – | – | – | 16 (≈ 27.8 µM) | –
28 | Cn1cc(NC(=O)c2cc(NC(=O)c3cc(-c4ccc(Cl)cc4F)cn3C)cn2C)cc1C(=O)NCCN1CCOCC1 | 0.5 (≈ 0.82 µM) | 0.25 (≈ 0.41 µM) | 0.1 | 0.062 (≈ 0.102 µM) | > 32 | 0.5 (≈ 0.82 µM) | 2 (≈ 3.28 µM) | Acute tolerability [11]: Lethality 5/5; MIC [8]: 0.5 µg/mL (≈ 0.82 µM)
29 | CN1CCN(NC(=O)c2cc(NC(=O)c3cc(NC(=O)c4cc(NC(=O)c5cc6ccccc6cn5)cn4C)cn3C)cn2C)CC1 | 16 (≈ 25.1 µM) | 16 (≈ 25.1 µM) | – | – | – | – | 16 (≈ 25.1 µM) | –
30 | Cn1cc(NC(=O)c2cc(NC(=O)c3cc(-c4ccncc4)cn3C)cn2C)cc1C(=O)NCCN1CCOCC1 | 32 (≈ 57.3 µM) | 2 (≈ 3.58 µM) | – | – | – | – | > 32 | –
